18 molecules from patent publication US8952157B2, “Apoptosis-inducing agents for the treatment of cancer and immune and autoimmune diseases” (AbbVie Inc., priority 2008, dated 2015) can be followed below.

GST-Bcl-2, sequence (P10415 whole entry): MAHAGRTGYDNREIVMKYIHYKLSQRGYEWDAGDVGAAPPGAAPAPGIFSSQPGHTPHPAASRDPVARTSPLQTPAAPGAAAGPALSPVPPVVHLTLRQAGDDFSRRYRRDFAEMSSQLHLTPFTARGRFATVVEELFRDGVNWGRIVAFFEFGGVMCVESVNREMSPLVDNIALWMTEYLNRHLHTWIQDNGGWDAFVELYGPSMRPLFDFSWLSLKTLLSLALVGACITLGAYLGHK

The target of the experiment is GST-Bcl-2 (Homo sapiens (Human), UniProt P10415). The experiment can be described thus: Time Resolved-Fluorescence Resonance Energy Transfer (TR-FRET) Bcl-2 binding assay. Conditions: GST-Bcl-2 1 nM, F-Bak peptide probe 100 nM, Tb-anti-GST antibody 1 nM; Ki by Wang's equation. Here is the method:
Determination of the utility of compounds having Formula (I) as binders to and inhibitors of anti-apoptotic Bcl-2 proteins was performed using the Time Resolved-Fluorescence Resonance Energy Transfer (TR-FRET) Assay. Tb-anti-GST antibody was purchased from Invitrogen (Catalog No. PV4216).
Representative compounds were serially diluted in dimethyl sulfoxide (DMSO) starting at 50 μM (2× starting concentration; 10% DMSO) and 10 μL were transferred into a 384-well plate. The samples are then mixed on a shaker for 1 minute and incubated for an additional 3 hours at room temperature. For each assay, the probe/antibody and protein/probe/antibody were included on each assay plate as negative and positive controls, respectively. Fluorescence was measured on the Envision (Perkin Elmer) using a 340/35 nm excitation filter and 520/525 (F-Bak peptide) and 495/510 nm (Tb-labeled anti-Histidine antibody) emission filters.
The samples were then mixed on a shaker for 1 minute and incubated for an additional 3 hours at room temperature. For each assay, the probe/antibody and protein/probe/antibody were included on each assay plate as negative and positive controls, respectively. Fluorescence was measured on the Envision (Perkin Elmer) using a 340/35 nm excitation filter and 520/525 (F-Bak peptide) and 495/510 nm (Tb-labeled anti-Histidine antibody) emission filters.
The inhibition constant (Ki) is the dissociation constant of an enzyme-inhibitor complex or a protein/small molecule complex, wherein the small molecule is inhibiting binding of one protein to another protein. So a large Ki value indicates a low binding affinity and a small Ki value indicates a high binding affinity.
In general terms: TR-FRET usually uses a lanthanide donor and a delayed reading to cut background.
As to `CN(C)Cc1ccccc1Oc1cc(N2CCN(Cc3ccccc3-c3ccc(Cl)cc3)CC2)ccc1C(=O)NS(=O)(=O)c1ccc(NCC2CCOCC2)c([N+](=O)[O-])c1` [Example 31, 4-(4-((4′-chloro-1,1′-biphenyl-2-yl)methyl)piperazin-1-yl)-2-(2-((dimethylamino)methyl)phenoxy)-N-((3-nitro-4-((tetrahydro-2H-pyran-4-ylmethyl)amino)phenyl)sulfonyl)benzamide], the Ki – broadly, a measure of affinity in units of concentration, obtained from inhibition or displacement – amounted to 2.01 nM. In other words, the single-digit nanomolar range. As for `Cc1nc(C)c(-c2cccc(Oc3cc(N4CCN(Cc5ccccc5-c5ccc(Cl)cc5)CC4)ccc3C(=O)NS(=O)(=O)c3ccc(NCCCN4CCOCC4)c([N+](=O)[O-])c3)c2)s1` [Example 33, 4-(4-((4′-chloro-1,1′-biphenyl-2-yl)methyl)piperazin-1-yl)-2-(3-(2,4-dimethyl-1,3-thiazol-5-yl)phenoxy)-N-((4-((3-morpholin-4-ylpropyl)amino)-3-nitrophenyl)sulfonyl)benzamide], the figure is 7.17 nM.

Molecule `CN1CCC(Nc2ccc(S(=O)(=O)NC(=O)c3ccc(N4CCN(CC5=C(c6ccc(Cl)cc6)CC(C)(C)CC5)CC4)cc3Oc3ccccc3Cl)cc2[N+](=O)[O-])CC1` [Example 34, 2-(2-chlorophenoxy)-4-(4-((2-(4-chlorophenyl)-4,4-dimethylcyclohex-1-en-1-yl)methyl)piperazin-1-yl)-N-((4-((1-methylpiperidin-4-yl)amino)-3-nitrophenyl)sulfonyl)benzamide] yielded a Ki of 0.049 nM.

`CN1CCC(Nc2ccc(S(=O)(=O)NC(=O)c3ccc(N4CCN(CC5=C(c6ccc(Cl)cc6)CC(C)(C)CC5)CC4)cc3Oc3cc(Cl)cc(Cl)c3)cc2[N+](=O)[O-])CC1` [Example 35, 4-(4-((2-(4-chlorophenyl)-4,4-dimethylcyclohex-1-en-1-yl)methyl)piperazin-1-yl)-2-(3,5-dichlorophenoxy)-N-((4-((1-methylpiperidin-4-yl)amino)-3-nitrophenyl)sulfonyl)benzamide] came in with a Ki of 0.022 nM. As for `CN1CCC(Nc2ccc(S(=O)(=O)NC(=O)c3ccc(N4CCN(CC5=C(c6ccc(Cl)cc6)CC(C)(C)CC5)CC4)cc3Oc3cccc(Cl)c3)cc2[N+](=O)[O-])CC1` [Example 36, 2-(3-chlorophenoxy)-4-(4-((2-(4-chlorophenyl)-4,4-dimethylcyclohex-1-en-1-yl)methyl)piperazin-1-yl)-N-((4-((1-methylpiperidin-4-yl)amino)-3-nitrophenyl)sulfonyl)benzamide], the figure is 0.07 nM; as for `CN(C)CCOc1ccc(-c2ccc(Cl)cc2)c(CN2CCN(c3ccc(C(=O)NS(=O)(=O)c4ccc(NC5CCN(C)CC5)c([N+](=O)[O-])c4)c(Oc4cccc(Cl)c4)c3)CC2)c1` [Example 37, 4-(4-((4′-chloro-4-(2-(dimethylamino)ethoxy)-1,1′-biphenyl-2-yl)methyl)piperazin-1-yl)-2-(3-chlorophenoxy)-N-((4-((1-methylpiperidin-4-yl)amino)-3-nitrophenyl)sulfonyl)benzamide], 0.005 nM. As for `CN1CCC(Nc2ccc(S(=O)(=O)NC(=O)c3ccc(N4CCN(CC5=C(c6ccc(Cl)cc6)CC(C)(C)OC5)CC4)cc3Oc3ccccc3Cl)cc2[N+](=O)[O-])CC1` [Example 38, 2-(2-chlorophenoxy)-4-(4-((4-(4-chlorophenyl)-6,6-dimethyl-5,6-dihydro-2H-pyran-3-yl)methyl)piperazin-1-yl)-N-((4-((1-methylpiperidin-4-yl)amino)-3-nitrophenyl)sulfonyl)benzamide], the figure is 0.013 nM; as for `CN(C)CCOc1cccc(Oc2cc(N3CCN(Cc4ccccc4-c4ccc(Cl)cc4)CC3)ccc2C(=O)NS(=O)(=O)c2ccc(NCC3CCOCC3)c([N+](=O)[O-])c2)c1` [Example 39, 4-(4-((4′-chloro-1,1′-biphenyl-2-yl)methyl)piperazin-1-yl)-2-(3-(2-(dimethylamino)ethoxy)phenoxy)-N-((3-nitro-4-((tetrahydro-2H-pyran-4-ylmethyl)amino)phenyl)sulfonyl)benzamide], 0.019 nM; as for `CN1CCC(Nc2ccc(S(=O)(=O)NC(=O)c3ccc(N4CCN(CC5=C(c6ccc(Cl)cc6)CC(C)(C)CC5)CC4)cc3Oc3ccc(N)c(Cl)c3)cc2[N+](=O)[O-])CC1` [Example 40, 2-(4-amino-3-chlorophenoxy)-4-(4-((2-(4-chlorophenyl)-4,4-dimethylcyclohex-1-en-1-yl)methyl)piperazin-1-yl)-N-((4-((1-methylpiperidin-4-yl)amino)-3-nitrophenyl)sulfonyl)benzamide], 0.019 nM.

On to `CC(C)N1CCC(Nc2ccc(S(=O)(=O)NC(=O)c3ccc(N4CCN(CC5=C(c6ccc(Cl)cc6)CC(C)(C)CC5)CC4)cc3Oc3ccccc3Cl)cc2[N+](=O)[O-])CC1` [Example 41, 2-(2-chlorophenoxy)-4-(4-((2-(4-chlorophenyl)-4,4-dimethylcyclohex-1-en-1-yl)methyl)piperazin-1-yl)-N-((4-((1-isopropylpiperidin-4-yl)amino)-3-nitrophenyl)sulfonyl)benzamide], for which the Ki is 0.027 nM. Regarding `CN1CCC(Nc2ccc(S(=O)(=O)NC(=O)c3ccc(N4CCN(CC5=C(c6ccc(Cl)cc6)CCCC5)CC4)cc3Oc3ccccc3Cl)cc2[N+](=O)[O-])CC1` [Example 43, 2-(2-chlorophenoxy)-4-(4-((2-(4-chlorophenyl)cyclohex-1-en-1-yl)methyl)piperazin-1-yl)-N-((4-((1-methylpiperidin-4-yl)amino)-3-nitrophenyl)sulfonyl)benzamide], the affinity, expressed as Ki, was 0.034 nM. With `Cc1n[nH]c2cccc(Oc3cc(N4CCN(CC5=C(c6ccc(Cl)cc6)CC(C)(C)CC5)CC4)ccc3C(=O)NS(=O)(=O)c3ccc(NCCCN4CCOCC4)c([N+](=O)[O-])c3)c12` [Example 44, 4-(4-((2-(4-chlorophenyl)-4,4-dimethylcyclohex-1-en-1-yl)methyl)piperazin-1-yl)-2-((3-methyl-1H-indazol-4-yl)oxy)-N-((4-((3-morpholin-4-ylpropyl)amino)-3-nitrophenyl)sulfonyl)benzamide] the figure was 0.036 nM; with `CN1CCC(Nc2ccc(S(=O)(=O)NC(=O)c3ccc(N4CCN(CC5=C(c6ccc(Cl)cc6)CC(C)(C)CC5)CC4)cc3Oc3cccc(F)c3F)cc2[N+](=O)[O-])CC1` [Example 45, 4-(4-((2-(4-chlorophenyl)-4,4-dimethylcyclohex-1-en-1-yl)methyl)piperazin-1-yl)-2-(2,3-difluorophenoxy)-N-((4-((1-methylpiperidin-4-yl)amino)-3-nitrophenyl)sulfonyl)benzamide], 0.047 nM; with `CN1CCC(Nc2ccc(S(=O)(=O)NC(=O)c3ccc(N4CCN(CC5=C(c6ccc(Cl)cc6)CC(C)(C)CC5)CC4)cc3Oc3cccc(Br)c3)cc2[N+](=O)[O-])CC1` [Example 46, 2-(3-bromophenoxy)-4-(4-((2-(4-chlorophenyl)-4,4-dimethylcyclohex-1-en-1-yl)methyl)piperazin-1-yl)-N-((4-((1-methylpiperidin-4-yl)amino)-3-nitrophenyl)sulfonyl)benzamide], 0.047 nM.

The molecule `CCN1CCC(Nc2ccc(S(=O)(=O)NC(=O)c3ccc(N4CCN(CC5=C(c6ccc(Cl)cc6)CC(C)(C)CC5)CC4)cc3Oc3ccccc3Cl)cc2[N+](=O)[O-])CC1` [Example 47, 2-(2-chlorophenoxy)-4-(4-((2-(4-chlorophenyl)-4,4-dimethylcyclohex-1-en-1-yl)methyl)piperazin-1-yl)-N-((4-((1-ethylpiperidin-4-yl)amino)-3-nitrophenyl)sulfonyl)benzamide] had a Ki of 0.05 nM. The Ki values of the last two molecules are within 1.5-fold of each other.

In the case of `CN1C(C)(C)CC(Nc2ccc(S(=O)(=O)NC(=O)c3ccc(N4CCN(CC5=C(c6ccc(Cl)cc6)CC(C)(C)CC5)CC4)cc3Oc3ccccc3Cl)cc2[N+](=O)[O-])CC1(C)C` [Example 48, 2-(2-chlorophenoxy)-4-(4-((2-(4-chlorophenyl)-4,4-dimethylcyclohex-1-en-1-yl)methyl)piperazin-1-yl)-N-((3-nitro-4-((1,2,2,6,6-pentamethylpiperidin-4-yl)amino)phenyl)sulfonyl)benzamide], the affinity corresponds to a Ki of 0.053 nM.

`CC1(C)CCC(CN2CCN(c3ccc(C(=O)NS(=O)(=O)c4ccc(NC5CCN(C6CCOCC6)CC5)c([N+](=O)[O-])c4)c(Oc4cccc(F)c4F)c3)CC2)=C(c2ccc(Cl)cc2)C1` [Example 49, 4-(4-((2-(4-chlorophenyl)-4,4-dimethylcyclohex-1-en-1-yl)methyl)piperazin-1-yl)-2-(2,3-difluorophenoxy)-N-((3-nitro-4-((1-tetrahydro-2H-pyran-4-ylpiperidin-4-yl)amino)phenyl)sulfonyl)benzamide] returned a Ki of 0.062 nM. As for `CN1CCC(Nc2ccc(S(=O)(=O)NC(=O)c3ccc(N4CCN(CC5=C(c6ccc(Cl)cc6)CC(C)(C)CC5)CC4)cc3Oc3cc(F)c4[nH]ccc4c3)cc2[N+](=O)[O-])CC1` [Example 50, 4-(4-((2-(4-chlorophenyl)-4,4-dimethylcyclohex-1-en-1-yl)methyl)piperazin-1-yl)-2-((7-fluoro-1H-indol-5-yl)oxy)-N-((4-((1-methylpiperidin-4-yl)amino)-3-nitrophenyl)sulfonyl)benzamide], the figure is 0.062 nM.
